Results: patent US20250375450A1, “SMARCA2/4 INHIBITION AS A STRATEGY TO TREAT TUMORS THAT HARBOR ABERRANT BAF ASSEMBLIES” (BOARD OF REGENTS, THE UNIVERSITY OF TEXAS SYSTEM, priority 2022, published 2025)

Tests used:
Assay type in all cases: biochemical
SMARCA2 [1] = target: T1, SMARCA2 (Homo sapiens, UniProt P51531); test: High-throughput screen (HTS) of 40,000 compounds, ATPase assay; conditions: HTS against human SMARCA2
T1 construct: The SMARCA2-1 gene (amino acids 437-1493) encompassing all domains; made in house; host or cells: expiSF9 insect cells (baculovirus, pFASTBac1)
T1 sequence (P51531 437-1493): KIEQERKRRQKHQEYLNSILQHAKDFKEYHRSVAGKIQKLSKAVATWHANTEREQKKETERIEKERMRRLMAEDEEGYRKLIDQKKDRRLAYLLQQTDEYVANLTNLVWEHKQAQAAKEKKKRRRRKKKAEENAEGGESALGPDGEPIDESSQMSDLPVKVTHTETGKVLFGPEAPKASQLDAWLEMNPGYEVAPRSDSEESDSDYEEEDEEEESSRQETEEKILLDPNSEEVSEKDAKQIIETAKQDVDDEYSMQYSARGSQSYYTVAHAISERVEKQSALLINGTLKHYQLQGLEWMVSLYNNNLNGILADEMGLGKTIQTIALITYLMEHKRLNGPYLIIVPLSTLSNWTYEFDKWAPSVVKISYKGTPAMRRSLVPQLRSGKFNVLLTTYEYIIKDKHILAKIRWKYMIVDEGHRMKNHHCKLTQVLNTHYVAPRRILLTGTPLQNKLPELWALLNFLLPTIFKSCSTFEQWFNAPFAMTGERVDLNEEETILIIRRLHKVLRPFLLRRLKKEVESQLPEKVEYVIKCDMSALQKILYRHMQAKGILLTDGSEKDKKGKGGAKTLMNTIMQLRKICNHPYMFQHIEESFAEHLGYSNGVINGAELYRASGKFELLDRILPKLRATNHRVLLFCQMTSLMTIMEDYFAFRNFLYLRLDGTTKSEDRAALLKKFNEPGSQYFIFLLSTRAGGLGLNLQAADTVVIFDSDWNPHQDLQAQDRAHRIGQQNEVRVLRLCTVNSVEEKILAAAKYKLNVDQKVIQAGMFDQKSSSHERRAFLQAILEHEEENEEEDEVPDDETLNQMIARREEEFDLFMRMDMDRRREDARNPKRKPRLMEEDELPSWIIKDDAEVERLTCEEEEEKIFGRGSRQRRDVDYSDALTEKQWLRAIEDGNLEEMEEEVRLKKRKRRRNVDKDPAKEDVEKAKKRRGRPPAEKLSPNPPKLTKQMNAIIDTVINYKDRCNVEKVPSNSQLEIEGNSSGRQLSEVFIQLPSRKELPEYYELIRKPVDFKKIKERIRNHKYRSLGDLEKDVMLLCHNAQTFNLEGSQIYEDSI
Text: The SMARCA2-1 gene (amino acids 437-1493) encompassing all domains (HAS, BRK, ATPase and Bromodomain) required for DNA binding and ATPase activity were cloned into a pFASTBac1 plasmid for insect cell expression (FIG. 2A). In brief, one positive colony was selected and grown to produce enough bacmid DNA. The purified bacmid DNA was used to transfect expiSF9 insect cells using ExpiFectamine protocol as recommended by the manufacturer (Invitrogen). The P0 virus was first generated from the transfected cells, which was subsequently used to generate a P1 virus stock to have enough virus for several rounds of infections and/or large-scale production of SMARCA2-1 enzyme. Next, the experimental conditions were optimized for highest expression of this enzyme and the cultures scaled up to express and purify the enzyme by successive passage of soluble fraction through affinity, ion-exchange, and size exclusion chromatography steps (FIG. 2B). Next, a 29-mer double stranded DNA termed as DNA_EEPD1 (sequence below) was used to measure ATPase activity of SMARCA2 (FIG. 2C and FIG. 2D) and its inhibition by the small molecules described herein (FIG. 4D).
(§1) In brief, the disclosed ATPase assay is based on the inorganic phosphate (Pi) release from the enzymatic reaction, wherein the substrate 2-amino-6-mercapto-7-methylpurine ribose (MESG) is converted by purine phosphorylase (PNP) to ribose 1-phosphate and 2-amino-6-mercapto-7-methylpurine. This conversion changes the spectrophotometric shift of MSEG absorbance from 330 nm to 360 nm (FIG. 1C and FIG. 1D).
Briefly, human SMARCA2 was purified, and a high-throughput screen (HTS) of 40,000 compounds was conducted. […] When cells reached 90% confluency, cells were harvested, washed twice in 1×PBS, counted using trypan blue exclusion method. […] Cells were monitored for 72 hrs. by live cell imaging method (Incucyte S3) taking images every two hours. The confluency was determined and plotted against time (hours) by using Prism software.

SMARCA2 [2] = target: T1, SMARCA2; test: Dose response experiment, ATPase assay
Text: The SMARCA2-1 gene (amino acids 437-1493) encompassing all domains (HAS, BRK, ATPase and Bromodomain) required for DNA binding and ATPase activity were cloned into a pFASTBac1 plasmid for insect cell expression (FIG. 2A). In brief, one positive colony was selected and grown to produce enough bacmid DNA. The purified bacmid DNA was used to transfect expiSF9 insect cells using ExpiFectamine protocol as recommended by the manufacturer (Invitrogen). The P0 virus was first generated from the transfected cells, which was subsequently used to generate a P1 virus stock to have enough virus for several rounds of infections and/or large-scale production of SMARCA2-1 enzyme. […]
as §1
Exemplary compounds were evaluated for their ability to inhibit human SMARCA2 in ATPase assays as detailed in Table 2 below. […]

SMARCA2 [3] = target: T1, SMARCA2; test: Secondary ATPase assay
Protocol: Exemplary compounds were evaluated for their ability to inhibit human SMARCA2 in ATPase assays as detailed in Table 2 below. Dose response curves for compound nos.

SMILES | % ATPase activity in HTS (SMARCA2 [1]) [%] | IC50 (SMARCA2 [2]) [µM] | IC50 (SMARCA2 [3]) [µM]
O[C@@H]1CC[C@H](Nc2nc(NCc3ccc(Cl)c(Cl)c3)c3ccccc3n2)C1 [Compound 6] | 97.3 |  | 
COc1cc2nc(NC3CCCC3)nc(NCc3ccc(Cl)c(Cl)c3)c2cc1OC [Compound 7] | 26.9 | 25.3 | 
Clc1ccc(CNc2nc(NC3CCCC3)nc3ccccc23)cc1Cl [Compound 8] | 10.6 | 14.8 | 5
